In EP1113726B1, “USE OF NEOHESPERIDIN DIHYDROCHALCONE FOR THE MANUFACTURE OF A MEDICAMENT FOR PREVENTING OR TREATING ELEVATED BLOOD LIPID LEVEL-RELATED DISEASES” (Korea Research Institute of Bioscience and Biotechnology, priority 1998, dated 2000):

What was measured:
Type in all cases: in vivo
[1] = system: New Zealand White rabbits; experiment: Analysis for fatty streak in the main artery of cholesterol-fed rabbits (Oil Red O staining); settings: 1 % cholesterol diet for 6 weeks plus 1 mg/kg Lovastatin or 0.05 % neohesperidin dihydrochalcone
Description: (§1) 30 three-month-old New Zealand White rabbits(Yeonam Horticulture and Animal Husbandry College, Korea), each weighing about 2.5 to 2.6 kg, were raised under a condition of temperature 20±2°C, relative humidity 55±5 %, and photoperiod 12L/12D. The rabbits were divided into 3 groups and 3 groups of rabbits were fed with 3 different diets, i.e., RC4 diet(Oriental Yeast Co., Japan) containing 1 % cholesterol(Control group); 1 % cholesterol plus 1 mg/kg Lovastatin®(Merck, U.S.A.)(Lovastatin group); and 1 % cholesterol plus 0.05 % neohesperidin dihydrochalcone(Neohesperidin dihydrochalcone group), respectively. RC4 diet comprises 7.6 % moisture, 22.8 % crude protein, 2.8 % crude fat, 8.8 % crude ash, 14.4 % crude cellulose and 43.6 % soluble nitrogen-free substances. Neohesperidin dihydrochalcone was purchased from Sigma Chemical Co.(St. Louis, MO).
(§2) The rabbits were fed for 6 weeks while being allowed free access to the diets and water.
The chest of each of the rabbits sacrificed in Step 2 was incised. The downward portion of the main artery from the site 1 cm above the aortic valve was cut out in a length of about 5 cm and the fat surrounding the main artery was removed. The main artery was incised in the middle along the longitudinal axis and pinned to a dish. The moist artery was photographed and, then, the staining of fatty streaks was carried out in accordance with the method of Esper, E., et al. (J. Lab. Clin. Med., 121, 103-110(1993)) as follows.
A part of the incised main artery was washed three times with anhydrous propylene glycol for 2 min and stained for 30 min. with a saturated solution of Oil Red O(ORO, Sigma Co.) dissolved in propylene glycol. Thereafter, the artery was washed twice with 85 % propylene glycol for 3 min. to remove remaining staining solution and, then washed with physiological saline. The artery was photographed and the photograph was traced. The area of stained region (fatty streak region) was determined with an image analyzer(LEICA, Q-600, Germany) and its proportion(%) to the total arterial area was calculated.

[2] = system: New Zealand White rabbits; experiment: Chemical analysis of blood of cholesterol-fed rabbits; settings: rabbit serum, 1 % cholesterol diet for 6 weeks plus 1 mg/kg Lovastatin or 0.05 % neohesperidin dihydrochalcone
Description: as §1, §2
After six weeks, the rabbits were anesthetized with an intramuscular injection of ketamine (50 mg/kg) in the femoral region and sacrificed.

[3] = system: New Zealand White rabbits; experiment: Microscopic grading of abnormal fat-containing cells in the liver of cholesterol-fed rabbits (fatty liver); settings: 1 % cholesterol diet for 6 weeks plus 1 mg/kg Lovastatin or 0.05 % neohesperidin dihydrochalcone
Description: as §1, §2
In order to evaluate the effects of feeding a high cholesterol diet with neohesperidin dihydrochalcone on liver tissues, the liver specimens taken from the sacrificed rabbit in Step 2 of Example 6 were treated in accordance with the procedure disclosed in Fogt F. and Nanji A., Toxicology and Applied Pharmacology, 136, 87-93, 1996; and Keegan A., et al., Journal of Hepatology 23: 591-600, 1995, and observed under a microscope to be classified into four grades, i.e., 1+(0-25%), 2+(26-50%), 3+(51-75), 4+(76-100%) based on the proportion of abnormal fat-containing cells around the central vein in the liver acinus.
Figs. 2A, 2B and 2C present the microscopic features of the livers of the rabbits administered with 1% cholesterol; 1% cholesterol plus 1 mg/kg Lovastatin®; 1% and cholesterol plus 0.05% neohesperidin dihydrochalcone, respectively.

CC[C@H](C)C(=O)O[C@H]1C[C@@H](C)C=C2C=C[C@H](C)[C@H](CC[C@@H]3C[C@@H](O)CC(=O)O3)[C@H]21 [Lovastatin, reference compound]
A: Proportion(%) of fatty streak region to the total arterial area ([1]; rabbit main artery): 5 (±4) % | layer of macrophage-lipid complex on the arterial endothelium (Figs. 1B, 1C) ([1]; rabbits): no or very thin layers of macrophage-lipid complex | GOT [2]: 125 (±19) IU/1 | GPT [2]: 73 (±9) IU/l | Total-C [2]: 1210 (±263) mg/dl | γ-GTP [2]: 12.4 (±0.8) IU/l | B: Proportion of abnormal fat-containing cells ([3]; rabbit liver, cells around the central vein, mean of grades 1+ to 4+): 3.4 (±0.5) | microscopic features of the liver (Figs. 2B, 2C) ([3]; rabbits): many cells containing excessive fat
